Data set [1] deals with Protein kinase C theta type (Homo sapiens) (UniProt Q04759). Particulars: Compound concentration 1000.0 nM; call rule not given here.
For data set [2], the target named is L-type Ca2+ channel (dihydropyridine site), Cav1.2 alpha-1C (Rattus norvegicus, UniProt P22002). Put plainly: CA+/DHPSI/R Cerep selectivity data (BI). On the set-up: mode of action inhibitor. Conditions: rat brain, probe [3H](+)PN200-110, compound concentration 20 uM, read-out: % Ctrl.
Data set [3] deals with Prostaglandin G/H synthase 2 (Homo sapiens) (UniProt P35354). As to the kind of experiment: COX2_HU Cerep selectivity data (BI). Conditions: Compound concentration 20.0 uM.
Data set [4] addresses Phosphorylase b kinase gamma catalytic chain, skeletal muscle/heart isoform (Homo sapiens) (UniProt Q16816). As to the kind of experiment: PHKG1 Invitrogen selectivity data (BI). Conditions: Compound concentration 3.0 uM.
The target of data set [5] is Gamma-aminobutyric acid receptor subunit alpha-1 (Rattus norvegicus) (UniProt P62813). Put plainly: BZD/CENTR/R Cerep selectivity data (BI). Particulars: Compound concentration 20.0 uM.
Data set [6] addresses T1, Mitogen-activated protein kinase kinase kinase 3 (Homo sapiens) (UniProt Q99759).
T1 sequence (whole entry): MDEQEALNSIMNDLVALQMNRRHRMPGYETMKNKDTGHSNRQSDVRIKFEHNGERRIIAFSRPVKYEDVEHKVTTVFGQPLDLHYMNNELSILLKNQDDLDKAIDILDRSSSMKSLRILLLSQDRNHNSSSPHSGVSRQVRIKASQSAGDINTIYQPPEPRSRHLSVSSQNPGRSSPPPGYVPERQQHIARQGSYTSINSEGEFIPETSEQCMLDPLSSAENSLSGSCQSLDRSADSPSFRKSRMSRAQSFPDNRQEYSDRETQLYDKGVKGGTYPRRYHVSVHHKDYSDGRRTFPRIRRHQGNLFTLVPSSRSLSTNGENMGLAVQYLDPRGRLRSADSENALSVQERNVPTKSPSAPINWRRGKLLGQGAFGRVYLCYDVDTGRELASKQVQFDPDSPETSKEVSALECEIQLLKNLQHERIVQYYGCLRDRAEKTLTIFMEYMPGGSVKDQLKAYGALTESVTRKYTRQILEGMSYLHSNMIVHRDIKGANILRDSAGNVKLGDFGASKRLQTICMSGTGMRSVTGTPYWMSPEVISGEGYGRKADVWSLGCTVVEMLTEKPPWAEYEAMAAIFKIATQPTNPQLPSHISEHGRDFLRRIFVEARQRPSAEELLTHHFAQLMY
As to the kind of experiment: MAP3K3 Invitrogen selectivity data (BI). Conditions: Compound concentration 3.0 uM.

For data set [7], the target named is Serine/threonine-protein kinase pim-2 (Homo sapiens) (UniProt Q9P1W9). As to the kind of experiment: PIM2 Invitrogen selectivity data (BI). Conditions: Compound concentration 3.0 uM.
Data set [8] deals with Sodium channel regulatory subunit beta-1 (Rattus norvegicus) (UniProt Q00954). Put plainly: NA+/SITE2/R Cerep selectivity data (BI). Particulars: Compound concentration 20.0 uM.
Data set [9] has as its target T2, Serine/threonine-protein kinase 17A (Homo sapiens) (UniProt Q9UEE5).
T2 sequence (whole entry): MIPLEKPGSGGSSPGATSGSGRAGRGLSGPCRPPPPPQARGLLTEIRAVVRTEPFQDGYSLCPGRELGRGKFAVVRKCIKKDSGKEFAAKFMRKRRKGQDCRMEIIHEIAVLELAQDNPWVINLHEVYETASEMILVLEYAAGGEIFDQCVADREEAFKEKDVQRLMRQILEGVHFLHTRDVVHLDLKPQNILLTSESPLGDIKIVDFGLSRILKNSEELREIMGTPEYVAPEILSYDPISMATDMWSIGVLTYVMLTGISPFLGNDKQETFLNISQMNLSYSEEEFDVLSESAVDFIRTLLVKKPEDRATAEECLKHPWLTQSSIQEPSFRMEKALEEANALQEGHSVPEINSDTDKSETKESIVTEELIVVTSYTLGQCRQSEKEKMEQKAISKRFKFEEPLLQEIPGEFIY
Put plainly: STK17A Invitrogen selectivity data (BI). Conditions: Compound concentration 3.0 uM.

In data set [10] the target is Mitogen-activated protein kinase 14 (Homo sapiens) (UniProt Q16539). Put plainly: MAPK14 Invitrogen selectivity data (BI). Conditions: Compound concentration 3.0 uM.
Data set [11] concerns the target Misshapen-like kinase 1 (Homo sapiens) (UniProt Q8N4C8). As to the kind of experiment: MINK1 Invitrogen selectivity data (BI). Particulars: Compound concentration 3.0 uM.
Data set [12] deals with T3, Serine/threonine-protein kinase TAO3 (Homo sapiens) (UniProt Q9H2K8).
T3 sequence (whole entry): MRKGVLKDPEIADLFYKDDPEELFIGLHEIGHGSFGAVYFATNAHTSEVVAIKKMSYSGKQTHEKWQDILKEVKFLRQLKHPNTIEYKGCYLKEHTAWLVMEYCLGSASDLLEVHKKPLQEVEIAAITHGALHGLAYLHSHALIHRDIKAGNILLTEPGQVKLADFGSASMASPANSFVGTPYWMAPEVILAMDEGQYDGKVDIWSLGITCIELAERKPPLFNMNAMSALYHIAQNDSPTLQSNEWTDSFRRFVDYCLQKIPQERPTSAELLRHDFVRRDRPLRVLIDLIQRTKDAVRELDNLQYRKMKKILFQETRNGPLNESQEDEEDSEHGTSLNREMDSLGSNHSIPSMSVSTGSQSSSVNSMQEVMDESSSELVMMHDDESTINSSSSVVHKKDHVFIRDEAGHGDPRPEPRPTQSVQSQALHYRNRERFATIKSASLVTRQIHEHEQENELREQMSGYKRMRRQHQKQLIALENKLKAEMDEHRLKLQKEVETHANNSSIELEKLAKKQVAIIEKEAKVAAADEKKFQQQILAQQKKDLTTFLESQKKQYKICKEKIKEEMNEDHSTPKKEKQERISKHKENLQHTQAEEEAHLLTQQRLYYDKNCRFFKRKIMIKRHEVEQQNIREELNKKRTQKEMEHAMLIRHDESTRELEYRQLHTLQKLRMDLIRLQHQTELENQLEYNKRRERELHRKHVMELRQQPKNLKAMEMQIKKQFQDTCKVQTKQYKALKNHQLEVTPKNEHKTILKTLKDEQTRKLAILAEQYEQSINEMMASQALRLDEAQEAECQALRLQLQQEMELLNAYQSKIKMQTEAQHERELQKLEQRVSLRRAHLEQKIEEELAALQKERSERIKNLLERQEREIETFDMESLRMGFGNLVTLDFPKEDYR
Put plainly: TAOK3 Invitrogen selectivity data (BI). Particulars: Compound concentration 3.0 uM.

Chain of L-type Ca2+ channel (dihydropyridine site), Cav1.2 alpha-1C (P22002 whole entry): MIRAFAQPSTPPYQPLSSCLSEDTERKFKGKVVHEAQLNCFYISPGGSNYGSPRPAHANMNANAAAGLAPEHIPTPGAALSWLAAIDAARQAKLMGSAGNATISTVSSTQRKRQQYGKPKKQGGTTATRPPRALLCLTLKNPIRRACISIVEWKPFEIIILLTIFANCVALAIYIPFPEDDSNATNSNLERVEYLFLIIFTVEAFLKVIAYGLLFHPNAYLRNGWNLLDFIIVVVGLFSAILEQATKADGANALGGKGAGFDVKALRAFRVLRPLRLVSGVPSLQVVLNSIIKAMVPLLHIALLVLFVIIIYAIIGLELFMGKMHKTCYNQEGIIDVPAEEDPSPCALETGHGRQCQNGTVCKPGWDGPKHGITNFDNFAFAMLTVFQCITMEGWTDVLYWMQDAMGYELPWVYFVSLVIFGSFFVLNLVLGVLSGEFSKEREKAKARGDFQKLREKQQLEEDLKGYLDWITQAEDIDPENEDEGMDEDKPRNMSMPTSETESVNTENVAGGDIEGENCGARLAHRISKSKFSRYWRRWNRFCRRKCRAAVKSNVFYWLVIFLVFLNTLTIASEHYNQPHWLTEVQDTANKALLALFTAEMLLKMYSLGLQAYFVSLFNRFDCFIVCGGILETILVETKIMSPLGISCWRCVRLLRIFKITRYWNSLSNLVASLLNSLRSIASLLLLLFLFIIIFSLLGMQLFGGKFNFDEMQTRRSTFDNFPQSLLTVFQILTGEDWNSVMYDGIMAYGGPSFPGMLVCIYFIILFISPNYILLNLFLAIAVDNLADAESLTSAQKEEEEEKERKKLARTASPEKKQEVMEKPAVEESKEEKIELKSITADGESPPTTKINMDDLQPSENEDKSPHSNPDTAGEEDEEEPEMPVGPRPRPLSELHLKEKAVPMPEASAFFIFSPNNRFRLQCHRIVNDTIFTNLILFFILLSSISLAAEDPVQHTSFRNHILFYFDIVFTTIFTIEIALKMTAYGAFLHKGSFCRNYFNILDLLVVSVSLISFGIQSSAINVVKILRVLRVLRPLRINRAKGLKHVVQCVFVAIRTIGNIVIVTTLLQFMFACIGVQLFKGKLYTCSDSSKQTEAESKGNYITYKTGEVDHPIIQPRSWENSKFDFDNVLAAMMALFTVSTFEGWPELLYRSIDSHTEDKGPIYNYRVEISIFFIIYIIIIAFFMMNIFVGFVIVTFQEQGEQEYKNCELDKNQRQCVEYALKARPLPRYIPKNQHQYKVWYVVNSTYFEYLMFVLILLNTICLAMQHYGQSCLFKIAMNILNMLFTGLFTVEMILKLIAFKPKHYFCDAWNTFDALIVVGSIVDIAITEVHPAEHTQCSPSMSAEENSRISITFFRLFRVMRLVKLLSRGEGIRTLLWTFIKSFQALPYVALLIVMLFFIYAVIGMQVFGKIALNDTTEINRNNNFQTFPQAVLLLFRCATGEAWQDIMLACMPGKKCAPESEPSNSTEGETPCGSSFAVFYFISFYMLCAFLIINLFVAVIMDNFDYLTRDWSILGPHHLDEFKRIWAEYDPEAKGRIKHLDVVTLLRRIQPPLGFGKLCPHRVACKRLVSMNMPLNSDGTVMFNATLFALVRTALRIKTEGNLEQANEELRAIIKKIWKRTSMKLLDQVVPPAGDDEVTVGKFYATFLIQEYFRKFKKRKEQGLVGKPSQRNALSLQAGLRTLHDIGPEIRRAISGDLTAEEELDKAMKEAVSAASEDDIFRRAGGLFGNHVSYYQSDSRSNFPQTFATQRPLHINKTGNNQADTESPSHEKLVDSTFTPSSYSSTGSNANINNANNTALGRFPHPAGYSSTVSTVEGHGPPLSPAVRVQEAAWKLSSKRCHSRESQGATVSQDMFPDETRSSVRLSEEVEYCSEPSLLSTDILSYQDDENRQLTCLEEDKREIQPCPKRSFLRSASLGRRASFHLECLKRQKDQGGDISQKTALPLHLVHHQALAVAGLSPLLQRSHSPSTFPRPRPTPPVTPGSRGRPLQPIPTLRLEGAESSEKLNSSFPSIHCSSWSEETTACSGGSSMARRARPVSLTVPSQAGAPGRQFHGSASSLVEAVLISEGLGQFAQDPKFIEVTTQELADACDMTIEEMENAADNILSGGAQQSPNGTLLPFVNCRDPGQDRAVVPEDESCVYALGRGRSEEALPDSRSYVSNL
Chain of Mitogen-activated protein kinase 14 (Homo sapiens) (Q16539 whole entry): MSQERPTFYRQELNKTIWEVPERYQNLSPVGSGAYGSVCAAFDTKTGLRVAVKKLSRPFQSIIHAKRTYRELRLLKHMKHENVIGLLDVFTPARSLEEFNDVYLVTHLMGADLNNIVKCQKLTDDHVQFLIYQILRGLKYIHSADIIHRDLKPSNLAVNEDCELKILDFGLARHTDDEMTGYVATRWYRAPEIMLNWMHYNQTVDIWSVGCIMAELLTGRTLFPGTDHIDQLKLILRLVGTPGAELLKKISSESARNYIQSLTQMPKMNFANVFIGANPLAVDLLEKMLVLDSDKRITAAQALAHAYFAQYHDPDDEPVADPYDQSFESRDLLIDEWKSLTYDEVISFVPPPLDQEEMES
Chain of Prostaglandin G/H synthase 2 (Homo sapiens) (P35354 whole entry, canonical isoform): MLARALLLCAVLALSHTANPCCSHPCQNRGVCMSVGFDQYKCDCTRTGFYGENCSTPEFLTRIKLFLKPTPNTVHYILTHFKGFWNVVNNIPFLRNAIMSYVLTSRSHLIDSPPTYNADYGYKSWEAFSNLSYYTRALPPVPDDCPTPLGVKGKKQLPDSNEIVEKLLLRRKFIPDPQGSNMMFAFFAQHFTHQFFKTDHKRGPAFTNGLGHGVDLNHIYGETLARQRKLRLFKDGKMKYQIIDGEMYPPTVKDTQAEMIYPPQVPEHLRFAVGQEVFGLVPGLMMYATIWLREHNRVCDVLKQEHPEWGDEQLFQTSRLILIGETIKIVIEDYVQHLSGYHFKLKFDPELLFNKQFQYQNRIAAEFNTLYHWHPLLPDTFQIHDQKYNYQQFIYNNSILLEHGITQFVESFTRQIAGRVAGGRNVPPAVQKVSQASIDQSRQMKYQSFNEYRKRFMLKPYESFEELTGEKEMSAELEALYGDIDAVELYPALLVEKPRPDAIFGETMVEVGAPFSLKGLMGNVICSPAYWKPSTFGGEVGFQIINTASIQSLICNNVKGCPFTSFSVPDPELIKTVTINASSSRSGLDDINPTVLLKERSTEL
Chain of Sodium channel regulatory subunit beta-1 (Rattus norvegicus) (Q00954 whole entry): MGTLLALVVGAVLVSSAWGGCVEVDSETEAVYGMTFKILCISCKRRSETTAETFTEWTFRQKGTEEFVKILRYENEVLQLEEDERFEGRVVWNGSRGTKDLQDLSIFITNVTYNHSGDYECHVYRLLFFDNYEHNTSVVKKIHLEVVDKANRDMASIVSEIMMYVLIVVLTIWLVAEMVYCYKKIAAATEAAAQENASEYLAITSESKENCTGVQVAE
Chain of Phosphorylase b kinase gamma catalytic chain, skeletal muscle/heart isoform (Homo sapiens) (Q16816 whole entry, looked up, canonical isoform): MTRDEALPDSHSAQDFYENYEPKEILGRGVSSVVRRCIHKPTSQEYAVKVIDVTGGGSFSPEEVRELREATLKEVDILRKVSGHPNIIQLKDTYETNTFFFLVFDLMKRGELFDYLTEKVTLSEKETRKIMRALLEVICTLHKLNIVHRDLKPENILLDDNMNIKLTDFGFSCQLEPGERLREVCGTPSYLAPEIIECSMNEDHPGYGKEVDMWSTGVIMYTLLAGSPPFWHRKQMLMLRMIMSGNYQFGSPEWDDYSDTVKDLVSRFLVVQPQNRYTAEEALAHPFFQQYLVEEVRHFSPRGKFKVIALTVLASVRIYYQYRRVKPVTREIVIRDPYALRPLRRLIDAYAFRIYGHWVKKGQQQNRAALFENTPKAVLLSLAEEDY
Chain of Serine/threonine-protein kinase pim-2 (Homo sapiens) (Q9P1W9 whole entry, looked up): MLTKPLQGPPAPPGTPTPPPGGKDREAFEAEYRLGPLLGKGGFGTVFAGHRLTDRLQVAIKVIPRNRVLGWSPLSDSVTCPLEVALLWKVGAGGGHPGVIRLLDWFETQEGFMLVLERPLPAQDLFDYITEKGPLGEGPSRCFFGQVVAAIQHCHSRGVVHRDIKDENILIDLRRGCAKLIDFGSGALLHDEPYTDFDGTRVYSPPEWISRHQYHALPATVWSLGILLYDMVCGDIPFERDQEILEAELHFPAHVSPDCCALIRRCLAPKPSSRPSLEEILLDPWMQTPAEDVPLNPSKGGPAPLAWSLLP
Chain of Protein kinase C theta type (Homo sapiens) (Q04759 whole entry, looked up): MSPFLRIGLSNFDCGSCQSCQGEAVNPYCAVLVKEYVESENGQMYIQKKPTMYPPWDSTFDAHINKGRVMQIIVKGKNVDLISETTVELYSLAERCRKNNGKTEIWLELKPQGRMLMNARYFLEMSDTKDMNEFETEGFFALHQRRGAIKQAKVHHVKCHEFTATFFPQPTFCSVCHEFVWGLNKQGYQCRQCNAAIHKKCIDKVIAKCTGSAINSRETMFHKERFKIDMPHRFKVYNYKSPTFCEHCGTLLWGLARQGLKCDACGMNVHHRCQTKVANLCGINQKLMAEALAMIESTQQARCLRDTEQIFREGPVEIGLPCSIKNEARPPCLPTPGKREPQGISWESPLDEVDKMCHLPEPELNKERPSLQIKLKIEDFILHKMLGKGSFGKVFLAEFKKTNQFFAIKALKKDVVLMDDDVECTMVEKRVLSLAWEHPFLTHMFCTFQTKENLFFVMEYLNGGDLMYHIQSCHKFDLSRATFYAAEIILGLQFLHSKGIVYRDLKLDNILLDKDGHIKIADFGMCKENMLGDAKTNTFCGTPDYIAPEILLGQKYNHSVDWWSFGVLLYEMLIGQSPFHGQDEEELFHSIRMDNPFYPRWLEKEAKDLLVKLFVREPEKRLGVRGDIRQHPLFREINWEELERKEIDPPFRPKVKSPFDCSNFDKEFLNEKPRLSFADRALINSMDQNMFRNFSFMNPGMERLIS

Take `CN(C)C(=O)Cn1cc(-c2nc(C3(c4ccc(-c5cnc(N)nc5)cc4)CC3)no2)cn1` [BI 0153]: the residual activity in data set [1] was 89%.

With `CN(C)C(=O)Cn1cc(-c2nc([C@@](C)(c3ccc(-c4cnc(N)nc4)cc3)C3CC3)no2)cn1` [BI 665915], in data set [2], the activity at 20 µM was 85% (not active). Moreover, the residual activity was 64% in data set [3]; 97.5% in [4]; 117% in [5]; 101% in [6]; 101% in data set [7]; 107% in data set [8]. Also, the residual activity is 96% in data set [9], 107% in [10], 93% in data set [11] and 104% in data set [12].

The values are drawn from ChEMBL document CHEMBL4507276 (2021).
